# Measured values published in the NIST ThermoML archive (doi:10.1021/acs.jced.9b00564).
# ± gives the expanded uncertainty stated by the source.
# How the values were obtained:
# [1] = Molar enthalpy of transition or fusion; conditions: Crystal; DSC
# [2] = Crystal; DSC
smiles,measurement,setting,value
O=[N+]([O-])c1ncccc1O [2-nitropyridin-3-ol],Molar enthalpy of transition or fusion,[1],5.27 ± 0.182 kcal/mol
same,Triple point temperature,[2],342.77 ± 1.2 K
